Experimental data published in patent US4436732A, “Medicated compound for treating diseases infected by virus of the herpes group” (priority 1981, dated 1984).

What was measured:
[1] = solubility of the active principle; assay type: physicochemical
From the text: The active principle is an individual substance of the xanthone nature (mangiferin euxantogen) of the formula C19 H18 O11. […] This compound has not been hitherto used in the medicine.

[2] = tested on: HV (virus of the herpes group); assay: antiviral properties in vitro in a culture of cells of fibroblasts of a chicken embryo (virus-suppressing effect, cytopathogenic effect); assay type: cell-based; conditions: 10 μg/ml; 100 TCD50 HV
Protocol: The study of antiviral properties of the active principle has been carried out in in vitro experiments in a culture of cells of fibroblasts of a chicken embryo following a commonly employed procedure for primary screening of antiviral preparations. Cells are grown in flasks or test-tubes on the nutrient medium 199 with the addition of 5 to 10 vol.% of cattle serum. Then, for the contact of the virus with cells, into the flasks a virus-containing material is added in doses of 1, 10, 100 and 1,000 TCD50. […] Flasks or test-tubes are then subjected to thermosetting at the temperature of 37° C. The virus-suppressing effect is determined for 5 days by way of comparison of the presence of cytopathogenic effect in the control and test flasks and test-tubes. As the control use is made of: control of the single layer of cells, the control of the active principle without virus and the control of the virus without the active principle.

[3] = tested on: herpetic encephalitis (HV); assay: experimental virus model of herpetic encephalitis of white mice; assay type: in vivo; conditions: for Average life span: control 4.78 ± 0.46; for Life span: control 12.7 ± 2.6; for Survival, %: control 70
Protocol: The chemotherapeutic effect of the active principle and the pharmaceutical composition on the whole has been studied on an experimental virus model of herpetic encephalitis of white mice. In the experiments more than 1,500 animals were used. To obtain the experimental encephalitis, white mice weighing 8-10 g have been infected intracerebrally. Prior to the infection the animal head skin is smeared with iodine, then ten-times dilutions of the virus-containing liquid in the volume of 0.03 ml are injected by means of a tuberculin syringe into the supraorbital area near the front median line to a depth of 1-2 mm directly into the brain. 3 to 7 days thereafter in the animals there were observed the disease signs (excitation, coordination disturbance, adynamia, paresis and paralysis) which were rapidly intensified and terminated in death. The experiments were assessed by the animal survival (in percent) and by the average life span of the test animals as compared to the control.
For treatment purposes the active principle or the medicated compound in the form of tablets is administered to the infected animals per os by means of a gastric tube as an aqueous suspension in the volume of 0.5 ml in doses of 20 to 500 mg/kg of the body weight 1 or 2 times per day. The tests have been carried out according to three schemes. In the first scheme, in order to preliminarily saturate the animal's organism with the active principle or the preparation were administered to the animals 1-2 days before the infection (preventive test). In the second scheme, to reveal the therapeutic effect of the active principle or the pharmaceutical composition, the compositions were introduced on the infection day and one or two days after the infection. In the third scheme (treatment-prophylaxis) the active principle or the medicated compound is administered the day before the infection or on the infection day, in both cases the treatment of the animal is continued for 5 to 7 days after the infection.
The most advantageous chemotherapeutic effect of the active principle or the pharmaceutical composition is manifested under the conditions of the treatment-prophylaxis application (third scheme).

[4] = once a day, 0.04 mg/mice, P above 0.5
[5] = once a day, 0.2 mg/mice, P above 0.25
[6] = once a day, 1 mg/mice, P above 0.25
[7] = once a day, 5 mg/mice, P above 0.5
[8] = two times a day, 0.04 mg/mice, P above 0.1
[9] = two times a day, 0.2 mg/mice, P below 0.05
[10] = two times a day, 1 mg/mice, P below 0.05
[11] = two times a day, 5 mg/mice, P above 0.1

Structure (SMILES): O=c1c2cc(O)c(O)cc2oc2cc(O)c([C@@H]3O[C@H](CO)[C@@H](O)[C@H](O)[C@H]3O)c(O)c12 [active principle, 2-C-β-D-glucopyranosyl-1,3,6,7-tetraoxyxanthone]
- solubility in chloroform ([1]; chloroform): insoluble
- solubility in ethanol ([1]; ethanol): sparingly soluble
- solubility in ethyl ether ([1]; ethyl ether): insoluble
- solubility in water ([1]; water): insoluble
- virus-suppressing effect [2]: high virus-suppressing effect
- chemotherapeutic effect ([3]; administration in maximum shortest time of the infection (Table 2)): highest
- chemotherapeutic effect ([3]; administration two times a day (Table 1)): highest, statistically certain chemotherapeutic effect
- chemotherapeutic effect (time of death vs control) ([3]; first two schemes (preventive; therapeutic), per os): impossible to reveal statistically certain chemotherapeutic effect
- Average life span ([3]; on the infection day, 1 mg/mice, P above 0.25): 5.16 ± 0.91 days
- Average life span ([3]; on the infection day, 2 mg/mice, P above 0.5): 5.0 ± 0.56 days
- Average life span ([3]; on the infection day, 5 mg/mice, P below 0.05): 6.41 ± 0.71 days
- Life span [3, 4]: 13.3 ± 2.5 days
- Survival, % [3, 4]: 80%
- Life span [3, 5]: 14.0 ± 2.3 days
- Survival, % [3, 5]: 90%
- Life span [3, 6]: 14.0 ± 2.2 days
- Survival, % [3, 6]: 90%
- Life span [3, 7]: 13.1 ± 2.7 days
- Survival, % [3, 7]: 70%
- Average life span ([3]; one day before infection, 1 mg/mice, P 0.05): 5.6 ± 0.82 days
- Average life span ([3]; one day before infection, 2 mg/mice, P below 0.05): 6.05 ± 0.83 days
- Average life span ([3]; one day before infection, 5 mg/mice, P below 0.05): 6.13 ± 1.04 days
- Life span [3, 8]: 14.1 ± 0.9 days
- Survival, % [3, 8]: 90%
- Life span [3, 9]: 15.0 days
- Survival, % [3, 9]: 100%
- Life span [3, 10]: 15.0 days
- Survival, % [3, 10]: 100%
- Life span [3, 11]: 14.3 ± 2.5 days
- Survival, % [3, 11]: 90%
